Five compounds from patent publication US20090324513A1, “Process for Producing Chlorinated Sucrose” (Pharmed Medicare Private Limited, priority 2004, published 2009) can be followed below.

Molecules are shown by their SMILES. Several values for one entry are separate records, joined by “and”; a condition that tells them apart may be missing. Equal entries are not always repeated.

Data set [1] can be described thus: Particle size evaluated in Microtrac-X100 equipment. In kind it is physicochemical. Particulars: for Particle size: other batches, ethyl acetate crystallization. Here is the method: The particle size was evaluated in Microtrac—X100 equipment.
A short description of data set [2]: Solubility test of product batch. In kind it is physicochemical. The following applies: result against specification: Soluble in ethanol and water. Slightly soluble in ethyl acetate.

Turning to `OC[C@H]1O[C@H](O[C@]2(CCl)O[C@H](CCl)[C@@H](O)[C@@H]2O)[C@H](O)[C@@H](O)[C@H]1Cl` [PP 02], in data set [1] (90% of particles), the Particle size was found to be 90% ≦ 9.125 microns.

On to `OC[C@H]1O[C@H](O[C@]2(CCl)O[C@H](CCl)[C@@H](O)[C@@H]2O)[C@H](O)[C@@H](O)[C@H]1Cl` [PP 03], for which the Particle size in data set [1] (90% of particles) amounted to 90% ≦ 9.165 microns.

With `OC[C@H]1O[C@H](O[C@]2(CCl)O[C@H](CCl)[C@@H](O)[C@@H]2O)[C@H](O)[C@@H](O)[C@H]1Cl` [PRO 01], the Particle size in data set [1] (90% of particles) was 90% ≦ 9.035 microns.

For `OC[C@H]1O[C@H](O[C@]2(CCl)O[C@H](CCl)[C@@H](O)[C@@H]2O)[C@H](O)[C@@H](O)[C@H]1Cl` [PRO 05], the Particle size in data set [1] (90% of particles) was 90% ≦ 9.183 microns.

With `OC[C@H]1O[C@@H](O[C@]2(CCl)O[C@H](CCl)[C@@H](O)[C@@H]2O)[C@H](O)[C@@H](O)[C@H]1Cl` [conventional crystallization batch, 1′,6′-Dichloro-1′,6′-Dideoxy-â-D-Fructo-Furanosyl-4-Chloro-4-Deoxy-â-D-Galactopyranoside], the Solubility result in data set [2] was “Complies”. The “individual crystal particle size at percentage” value in data set [1] (10% of particles) stood at 0.956 microns; in data set [1] (20% of particles), 1.541 microns; in data set [1] (30% of particles), 2.093 microns; in data set [1] (40% of particles), 2.605 microns; in data set [1] (50% of particles) it was 3.274 microns; in data set [1] (60% of particles), 4.236 microns. The “individual crystal particle size at percentage” value in data set [1] (70% of particles) is 5.311 microns; in data set [1] (80% of particles), 6.615 microns; in data set [1] (90% of particles, listed as crystallized product), “below 9.185 microns and 9.185 microns”; in data set [1] (95% of particles), 11.51 microns.
